For experiment [1], the system named is Beetroot (RNA, aptamer) GCGCCGGUUAGGCAGAGGUGGGUGGUGUGGAGGAGUAUCUGUCCGGCGC
In words: co-crystal structure, 2.1 Å; fluorescence activation. The settings on record: K+.

Experiment [2] relates to A31U (RNA, aptamer) GCGCCGGUUAGGCAGAGGUGGGUGGUGUGGUGGAGUAUCUGUCCGGCGC
In words: fluorescence activation. The settings on record: 150 mM K+, 5 mM Mg2+; 20 mM MOPS-KOH pH 7.0; fluorescence reduced at least 50% relative to wild-type.

Experiment [3] deals with A16U + U38G (Wobble Beetroot) (RNA, aptamer) GCGCCGGUUAGGCAGUGGUGGGUGGUGUGGAGGAGUAGCUGUCCGGCGC
In words: fluorescence titration. The settings on record: 150 mM K+, 5 mM Mg2+; 20 mM MOPS-KOH pH 7.0; RNA titrated into dye.

Experiment [4] concerns A16U + U38A (RNA, aptamer) GCGCCGGUUAGGCAGUGGUGGGUGGUGUGGAGGAGUAACUGUCCGGCGC
Kind of experiment: fluorescence activation. The settings on record: 150 mM K+, 5 mM Mg2+; 20 mM MOPS-KOH pH 7.0; considerably less fluorescent than wild-type.

Experiment [5] concerns Beetroot (RNA, aptamer) GCGCCGGUUAGGCAGAGGUGGGUGGUGUGGAGGAGUAUCUGUCCGGCGC
Kind of experiment: ITC. The settings on record: 150 mM K+, 5 mM Mg2+; 20 mM MOPS-KOH pH 7.0, 25 °C (methods; text gives 21 °C); two equivalent sites per dimer; per site.

Experiment [6] has as its system A16C + U38G (RNA, aptamer) GCGCCGGUUAGGCAGCGGUGGGUGGUGUGGAGGAGUAGCUGUCCGGCGC
Kind of experiment: fluorescence activation. The settings on record: 150 mM K+, 5 mM Mg2+; 20 mM MOPS-KOH pH 7.0; considerably less fluorescent than wild-type.

For experiment [7], the system named is Beetroot (RNA, aptamer) GCGCCGGUUAGGCAGAGGUGGGUGGUGUGGAGGAGUAUCUGUCCGGCGC
Kind of experiment: fluorescence titration. The settings on record: 150 mM K+, 5 mM Mg2+; 20 mM MOPS-KOH pH 7.0; RNA titrated into dye.

Experiment [8] deals with J1/2 deletion (RNA, aptamer) GCGCCGGGCAGAGGUGGGUGGUGUGGAGGAGUAUCUGUCCGGCGC
Kind of experiment: fluorescence activation. The settings on record: 150 mM K+, 5 mM Mg2+; 20 mM MOPS-KOH pH 7.0; fluorescence comparable to wild-type.

The test system of experiment [9] is A31C (RNA, aptamer) GCGCCGGUUAGGCAGAGGUGGGUGGUGUGGCGGAGUAUCUGUCCGGCGC
In words: fluorescence activation. The settings on record: 150 mM K+, 5 mM Mg2+; 20 mM MOPS-KOH pH 7.0; fluorescence reduced at least 50% relative to wild-type.

Experiment [10] relates to F30-wild-type Beetroot / Wobble Beetroot heterodimer (RNA, aptamer) GGAGCCAUGUGUAUGUGGUCCGCGCCGGUUAGGCAGAGGUGGGUGGUGUGGAGGAGUAUCUGUCCGGCGCGGACCACAUACUCUGAUGAUCCUUCGGGAUCAUUCAUGGCUCC/GCGCCGGUUAGGCAGUGGUGGGUGGUGUGGAGGAGUAGCUGUCCGGCGC
Kind of experiment: fluorescence emission spectrum. The settings on record: 150 mM K+, 5 mM Mg2+; 20 mM MOPS-KOH pH 7.

Experiment [11] deals with F30_Beetroot (RNA, aptamer) GGAGCCAUGUGUAUGUGGUCCGCGCCGGUUAGGCAGAGGUGGGUGGUGUGGAGGAGUAUCUGUCCGGCGCGGACCACAUACUCUGAUGAUCCUUCGGGAUCAUUCAUGGCUCC
In words: fluorescence emission spectrum. The settings on record: 150 mM K+, 5 mM Mg2+; 20 mM MOPS-KOH pH 7.

For the compound `Cc1ccc2c(c1)sc(-c1ccc(N(C)C)cc1)[n+]2C`, the binding result in experiment [1] is given as “yes”.
With `COC(=O)/C=C/C1=NC(=C\c2cc(F)c(O)c(F)c2)/C(=O)N1C`, the binding entry in experiment [2], in experiment [4], in [6], in [8], in experiment [9] and in [10] was “yes” throughout. The binding result in experiment [11] is recorded as “yes”. Besides, the Kd (as a rule, a measure of binding affinity in units of concentration) was 4.9 ± 1.2 µM in [3], 0.47 ± 0.18 µM in [5] and 1.55 µM in experiment [7].
With `CN1C(=O)/C(=C/c2cc(F)c(O)c(F)c2)N=C1/C=N/O`, the Kd in [3] came out at 7.6 ± 0.8 µM; in experiment [7], 9.3 ± 1.5 µM. Besides, the binding entry in [10] was “yes”.

The values are drawn from article PMC10205801 (2023).
